{"source": "paper PMC10412585", "about": "(Nature Communications, 2023)", "format_in_all_cases": "cell-based, human", "key": {"[1]": {"system": "HLA-E", "test": "HLA-E surface stabilization assay with RMA-S/HLA-E cells", "settings": "peptide 3-300 µM (Fig. 3: 30 µM) in OptiMEM, 16 h, 37 °C, anti-HLA-E 3D12, flow cytometry, n = 4 replicate experiments", "protocol": "To probe top-predicted proteome-derived peptides (Tables 2 and 3) for HLA-E binding, we assessed their ability to stabilize surface-expressed HLA-E on RMA-S/HLA-E cells, a TAP-deficient mouse cell line engineered to express HLA-E and human β2M (Fig. 3 and Supplemental Fig. 8)[47].\nFig. 3 Peptide stabilization of HLA-E surface expression. Assessment of peptide-HLA-E binding via HLA-E surface stabilization assay with RMA-S/HLA-E cells incubated with 30 μM peptide. HLA-E expression is detected with an anti-HLA-E antibody. Measurements from n = 4 replicate experiments are shown, with solid black lines indicating mean values. […] Source data are provided as a Source Data file.\nRMA-S/HLA-E cells were incubated with serial dilutions of peptides (3–300 µM, Genscript) in OptiMEM (ThermoFisher) for 16 h at 37 °C. Cells were washed with PBS, stained for HLA-E (Clone 3D12, Biolegend, 1:200 dilution) for 15 min at room temperature and analyzed by flow cytometry (analysis in FlowJo version 10). Peptide UBAC2_275-279 was ordered as a 5mer peptide (WNRLF) given the similarity with other WN peptides and hypothesis of a truncated peptide binding in the HLA-E groove. […] Measurements from replicate experiments are plotted in Fig. 3 and Supplemental Fig. 8."}, "[2]": {"system": "NKG2A-/NKG2C+ NK cells", "test": "NK cell activation assay with peptide-pulsed K562/HLA-E cells, NKG2A-/NKG2C+ NK cells", "settings": "K562/HLA-E target cells, 300 µM peptide ([…] µM BFAR263-271), E:T 2:1, 6 h; degranulation (CD107a), IFN-γ, TNF, CCL3; flow cytometry", "protocol": "(§1) We hypothesized that our predicted proteome-derived peptides could affect NK cell activation through interactions with CD94/NKG2A and CD94/NKG2C. To investigate, we performed cell-based activation assays on primary NK cells (Fig. 4A). NK cells were co-incubated with peptide-pulsed HLA-E-expressing K562 cells, as described previously. The parental K562 human myelogenous leukemia cell line is a typical target to measure NK cell cytotoxicity and activation, allowing for assessment of both NKG2A-mediated inhibition and NKG2C-mediated activation. […] NKG2A^-/NKG2C^- NK cells served as internal control as these should be unaffected by peptide-HLA-E complexes (Supplemental Fig. 12).\n(§2) Fig. 4 NK cell stimulation assays. Assessment of effects of peptides on NK cell activity through incubation of NK cells, peptides, and (A) K562/HLA-E or (B) RMA-S/HLA-E target cells. […] Replicates for individual peptides are from different donors, with solid black lines indicating mean values. […] Representative gating for NKG2A^+/NKG2C^- and NKG2A^-/NKG2C^+ NK cells is shown in Supplemental Fig. 14. Source data are provided as a Source Data file.\n(§3) All analyses of human data were carried out in compliance with the relevant ethical regulations. Healthy blood donors gave informed consent at DRK Blutspendedienst Nord-Ost, Dresden, Germany, and buffy coats were obtained as approved by Charité ethics committee (EA4/059/17). PBMCs were isolated from human CMV-seropositive buffy coats by density centrifugation over Ficoll Paque Plus (GE Healthcare) and screened for the presence of NKG2C^+ NK cell expansions by flow cytometry to have sufficient frequencies of single-positive cells for parallel assessment of activation and inhibition via HLA-E[47]. Total NK cells from donors with NKG2C^+ expansions (>10% NKG2A^-/NKG2C^+ NK cells) were enriched with CD56 microbeads (Miltenyi Biotec) and cryopreserved in FBS with 10% v/v DMSO. After thawing, NK cells were washed with complete medium, stained with antibodies and Fixable Viability Dye eFluor 780 (Thermo Fisher) for 15 min at 4 °C in PBS, sorted as viable CD56^+ CD3^− cells, and rested in complete media overnight. […] Brefeldin A and Monensin (BD Biosciences) were added after a 1 h culture period. After an additional 5 h, the stimulation was stopped by centrifugation at 4 °C. Cells underwent surface staining, followed by fixation and intracellular staining using Inside Stain Kit (Miltenyi Biotec). Samples were analyzed by flow cytometry on an LSR Fortessa (BD Biosciences). Inhibition of NKG2A^+ NK cells and activation of NKG2C^+ NK cells was assessed by gating on the respective single-positive populations (Supplemental Fig. 14). Antibodies are listed in Supplemental Table 1: anti-human CD56 PE/Dazzle 594 (1:200 dilution), CD3 APC-eFluor 780 (1:50 dilution), anti-human CD159a (NKG2A) Biotin REAfinity (1:50 dilution), anti-human CD159c (NKG2C) PE REAfinity (1:100 dilution), anti-human CD107a (LAMP-1) Alexa Fluor 488 (1:400 dilution), anti-human IFN-γ PE-Vio 770 REAfinity (1:50 dilution), anti-human TNF-α Brilliant Violet 605 (1:50 dilution), anti-human CCL3 (MIP-1α) REAfinity (1:25 dilution)."}, "[3]": {"system": "NKG2A+/NKG2C- NK cells", "test": "NK cell activation assay with peptide-pulsed K562/HLA-E cells, NKG2A+/NKG2C- NK cells", "settings": "K562/HLA-E target cells, 300 µM peptide ([…] µM BFAR263-271), E:T 2:1, 6 h; degranulation (CD107a), IFN-γ, TNF, CCL3; flow cytometry", "protocol": "as §1, §2, §3"}, "[4]": {"system": "NKG2A-/NKG2C- NK cells", "test": "NK cell activation assay with peptide-pulsed K562/HLA-E cells, NKG2A-/NKG2C- internal control", "settings": "K562/HLA-E target cells, 300 µM peptide, flow cytometry", "protocol": "We hypothesized that our predicted proteome-derived peptides could affect NK cell activation through interactions with CD94/NKG2A and CD94/NKG2C. To investigate, we performed cell-based activation assays on primary NK cells (Fig. 4A). NK cells were co-incubated with peptide-pulsed HLA-E-expressing K562 cells, as described previously. The parental K562 human myelogenous leukemia cell line is a typical target to measure NK cell cytotoxicity and activation, allowing for assessment of both NKG2A-mediated inhibition and NKG2C-mediated activation. A side-by-side comparison of the HLA-E expression levels of K562/HLA-E and RMA-S/HLA-E cell lines is shown in Supplemental Fig. 11. All peptides which bound and stabilized HLA-E in the cell-based stability experiment (Fig. 3) were analyzed for their effects on NKG2A^+/NKG2C^- or NKG2A^-/NKG2C^+ NK cell activity, as measured by their ability to induce NK cell degranulation as well as IFN-γ, TNF and CCL3 production, in comparison to class I MHC-derived positive control peptides […] and […], and negative control peptide […] […]\nAll analyses of human data were carried out in compliance with the relevant ethical regulations. […] Samples were analyzed by flow cytometry on an LSR Fortessa (BD Biosciences). Inhibition of NKG2A^+ NK cells and activation of NKG2C^+ NK cells was assessed by gating on the respective single-positive populations (Supplemental Fig. 14). […]"}}, "data": [{"sequence": "SAPLKTRFL [UL120_71-79, AD169, divergent UL120 peptide of CMV strain AD169]", "values": [{"measurement": "stabilization of HLA-E surface expression", "setting": "[1]", "result": "weaker but detectable stabilization"}, {"measurement": "activating effects on NKG2C+ cells", "setting": "[2]", "result": "negatively affect activation of all subsets"}, {"measurement": "inhibitory effects on NKG2A+ cells", "setting": "[3]", "result": "negatively affect activation of all subsets"}, {"measurement": "effect on activation of internal NKG2A-/NKG2C- control NK cells", "setting": "[4]", "result": "negatively affect activation of all subsets"}]}]}
